Legend:
Assay in all cases: relative viability (nuclei count vs DMSO), 5 days (fraction); higher = more cells survive
AT9283 + Linsitinib = compound: O=C(Nc1c[nH]nc1-c1nc2ccc(CN3CCOCC3)cc2[nH]1)NC1CC1 [AT9283] + C[C@]1(O)C[C@@H](c2nc(-c3ccc4ccc(-c5ccccc5)nc4c3)c3c(N)nccn32)C1 [Linsitinib] (partner 1 µM)
Outline: (§1)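 Cells from lung cancer lines were seeded into 1536-well plates and, one day later, dosed by pin tool. Treatments were either a single drug or a fixed dose of an anchor drug with five library-drug doses (not always all listed) in √10 steps. After 5 days, nuclei were stained in a one-step fixation (final 0.05% Triton X-100, 1% formaldehyde, 1 ug/ml Hoechst) and counted on 4× images, and relative viability is the treated-to-vehicle nuclei ratio, as the median of duplicate plates.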

AT9283 + Alpelisib = compound: O=C(Nc1c[nH]nc1-c1nc2ccc(CN3CCOCC3)cc2[nH]1)NC1CC1 [AT9283] + Cc1nc(NC(=O)N2CCC[C@H]2C(N)=O)sc1-c1ccnc(C(C)(C)C(F)(F)F)c1 [Alpelisib] (partner 2 µM)
Outline: as §1

AT9283 + Bortezomib = compound: O=C(Nc1c[nH]nc1-c1nc2ccc(CN3CCOCC3)cc2[nH]1)NC1CC1 [AT9283] + CC(C)C[C@H](NC(=O)[C@H](Cc1ccccc1)NC(=O)c1cnccn1)B(O)O [Bortezomib] (partner 0.002 µM)
Outline: as §1

Erlotinib + Olaparib = compound: C#Cc1cccc(Nc2ncnc3cc(OCCOC)c(OCCOC)cc23)c1 [Erlotinib] + O=C(c1cc(Cc2n[nH]c(=O)c3ccccc23)ccc1F)N1CCN(C(=O)C2CC2)CC1 [Olaparib] (partner 8 µM)
Outline: as §1

AT9283 + Olaparib = compound: O=C(Nc1c[nH]nc1-c1nc2ccc(CN3CCOCC3)cc2[nH]1)NC1CC1 [AT9283] + O=C(c1cc(Cc2n[nH]c(=O)c3ccccc23)ccc1F)N1CCN(C(=O)C2CC2)CC1 [Olaparib] (partner 8 µM)
Outline: as §1

Row | Cell Line | relative viability (AT9283 + Linsitinib; first compound 0.003 µM) | relative viability (AT9283 + Linsitinib; first compound 0.03 µM) | relative viability (AT9283 + Linsitinib; first compound 0.09487 µM) | relative viability (AT9283 + Linsitinib; first compound 0.3 µM) | relative viability (AT9283 + Alpelisib; first compound 0.003 µM) | relative viability (AT9283 + Alpelisib; first compound 0.03 µM) | relative viability (AT9283 + Alpelisib; first compound 0.09487 µM) | relative viability (AT9283 + Alpelisib; first compound 0.3 µM) | relative viability (AT9283 + Bortezomib; first compound 0.003 µM) | relative viability (AT9283 + Bortezomib; first compound 0.03 µM) | relative viability (AT9283 + Bortezomib; first compound 0.09487 µM) | relative viability (AT9283 + Bortezomib; first compound 0.3 µM) | relative viability (Erlotinib + Olaparib; first compound 0.02 µM) | relative viability (Erlotinib + Olaparib; first compound 0.2 µM) | relative viability (Erlotinib + Olaparib; first compound 0.6325 µM) | relative viability (Erlotinib + Olaparib; first compound 2 µM) | relative viability (AT9283 + Olaparib; first compound 0.003 µM) | relative viability (AT9283 + Olaparib; first compound 0.03 µM) | relative viability (AT9283 + Olaparib; first compound 0.09487 µM) | relative viability (AT9283 + Olaparib; first compound 0.3 µM)
1 | HCC-366 | 0.71 | 0.319 | 0.0197 | 0.0206 | 0.48 | 0.17 | 0.122 | 0.0346 | 1.02 | 0.921 | 0.129 | 0.0684 | 0.331 | 0.359 | 0.353 | 0.242 | 0.362 | 0.262 | 0.113 | 0.0721
2 | NCI-H2085 | 0.847 | 0.687 | 0.245 | 0.214 | 0.946 | 0.894 | 0.615 | 0.411 | 1.03 | 0.937 | 0.984 | 0.485 | 0.754 | 0.768 | 0.655 | 0.619 | 0.834 | 0.772 | 0.629 | 0.292
3 | NCI-H1915 | 1.06 | 1.01 | 0.529 | 0.239 | 1.01 | 1.06 | 0.24 | 0.222 | 0.769 | 0.952 | 0.887 | 0.341 | 0.25 | 0.264 | 0.25 | 0.222 | 0.266 | 0.228 | 0.17 | 0.143
4 | NCI-H1355 | 0.807 | 0.649 | 0.273 | 0.167 | 0.855 | 0.898 | 0.443 | 0.182 | 1.15 | 1.13 | 1.23 | 0.287 | 0.796 | 0.709 | 0.684 | 0.558 | 0.803 | 0.708 | 0.329 | 0.246
5 | HCC-827 | 0.995 | 0.843 | 0.463 | 0.371 | 0.96 | 0.856 | 0.349 | 0.212 | 1.03 | 0.678 | 0.747 | 0.568 | 0.243 | 0.147 | 0.149 | 0.139 | 0.702 | 0.53 | 0.344 | 0.255
6 | RERF-LC-KJ | 0.995 | 0.508 | 0.264 | 0.208 | 0.808 | 0.738 | 0.441 | 0.251 | 1.02 | 0.793 | 0.526 | 0.296 | 1 | 0.86 | 0.994 | 0.852 | 0.962 | 0.485 | 0.267 | 0.237
7 | NCI-H2228 | 0.823 | 0.632 | 0.17 | 0.175 | 0.831 | 0.676 | 0.176 | 0.136 | 1.04 | 0.529 | 0.118 | 0.176 | 0.678 | 0.701 | 0.537 | 0.604 | 0.675 | 0.455 | 0.228 | 0.153
8 | NCI-H520 | 0.926 | 0.37 | 0.291 | 0.181 | 1.01 | 0.338 | 0.274 | 0.239 | 0.574 | 0.241 | 0.182 | 0.168 | 0.413 | 0.343 | 0.37 | 0.335 | 0.32 | 0.205 | 0.223 | 0.22
9 | HOP-62 | 0.927 | 0.721 | 0.178 | 0.173 | 1.11 | 0.991 | 0.207 | 0.219 | 0.593 | 0.651 | 0.68 | 0.158 | 0.446 | 0.307 | 0.508 | 0.415 | 0.514 | 0.308 | 0.137 | 0.201
10 | PC-14 | 1.04 | 0.729 | 0.438 | 0.138 | 0.992 | 0.893 | 0.554 | 0.1 | 0.944 | 0.704 | 0.179 | 0.116 | 0.272 | 0.168 | 0.135 | 0.106 | 0.264 | 0.151 | 0.074 | 0.0669
11 | UMC-11 | 0.849 | 0.138 | 0.14 | 0.168 | 1.01 | 0.148 | 0.122 | 0.146 | 0.465 | 0.108 | 0.0924 | 0.129 | 0.987 | 0.426 | 0.477 | 0.324 | 0.712 | 0.218 | 0.213 | 0.23
12 | NCI-H2405 | 1.06 | 0.632 | 0.315 | 0.221 | 0.881 | 0.551 | 0.236 | 0.15 | 0.875 | 0.967 | 0.721 | 0.33 | 0.965 | 0.849 | 0.888 | 0.81 | 0.941 | 0.615 | 0.333 | 0.217
13 | HARA | 0.428 | 0.879 | 0.0968 | 0.0955 | 0.643 | 0.844 | 0.0814 | 0.0973 | 0.795 | 1.05 | 0.172 | 0.158 | 1.1 | 0.591 | 1.02 | 0.354 | 0.756 | 0.278 | 0.205 | 0.179
14 | NCI-H1437 | 1.06 | 0.691 | 0.181 | 0.158 | 0.997 | 0.88 | 0.571 | 0.155 | 0.496 | 0.398 | 0.175 | 0.164 | 0.638 | 0.646 | 0.607 | 0.612 | 0.616 | 0.549 | 0.3 | 0.277
15 | COR-L23 | 0.867 | 0.152 | 0.0945 | 0.135 | 0.811 | 0.23 | 0.117 | 0.109 | 1.05 | 0.664 | 0.23 | 0.152 | 0.38 | 0.309 | 0.442 | 0.308 | 0.331 | 0.156 | 0.115 | 0.137

Reference: the supplement of paper PMC10307832
